Data from article PMC2426711 (AIDS Research and Therapy, 2008).
Like-named read-outs stand apart in the source and are kept apart here.

Legend:
HIV-1 [1] = system: HIV-1; set-up: method as in PMID 15790304; details: cited from earlier work
vaginal mucosa = system: vaginal mucosa; set-up: method as in PMID 11162774; details: vaginal toxicity, New Zealand White rabbit; cited from earlier work
HIV-1 [2] = system: HIV-1
R5-tropic HIV-1Ba-L [3] = assay: Inhibition of infection of dendritic cells by R5-HIV-1Ba-L (p24 ELISA); format: cell-based; details: DC, mean ± 1 SD
Method: (§1) Primary X4-HIV-1NDK was grown in peripheral blood lymphocytes (PBL) of healthy donors stimulated with PHA and rhIL-2. R5-HIV-1Ba-L was amplified in monocyte-derived macrophages of healthy donors.
(§2) Cells were washed 2 times after 6 days of differentiation and seeded into 96-well culture plates (5 × 10^5 cells/well). HIV-1 (1 ng p24 antigen/ml) and increasing concentrations of molecules were added on cells and incubated for 3 hours at 37°C in a 5% CO2 atmosphere. Each sample was performed in triplicate. After 4 washes to remove exceeding virus, cells were cultured for 3 days. […] In this last case, supernatants were harvested and viruses produced were lysed by incubation for 45 minutes at 37°C with 1% Triton X-100.

R5-tropic HIV-1Ba-L [4] = assay: Inhibition of infection of macrophages by R5-HIV-1Ba-L (p24 ELISA); format: cell-based; details: MΦ, mean ± 1 SD
Method: as §1, §2

X4-tropic HIV-1NDK [5] = assay: Inhibition of infection of T cells by X4-HIV-1NDK (p24 ELISA); format: cell-based; details: mean ± 1 SD
Method: as §1, §2

R5-tropic HIV-1Ba-L [6] = assay: Inhibition of infection of T cells by R5-HIV-1Ba-L (p24 ELISA); format: cell-based; details: mean ± 1 SD
Method: as §1, §2

[7] = system: R5-tropic HIV-1Ba-L particles
Method: (§5) As expected, no viral production was detected in control wells containing triton X100-treated HIV-1 and activated PBL (negative control).
(§6) HIV-1 was adsorbed on poly-L-lysin pre-coated wells (Greiner Bio-One) at 4°C overnight and further incubated with C14 for 1 h. In positive and negative control wells, 1% Triton X-100 and medium were added, respectively. […] After 6 days, viral production was assessed by p24 Ag capture ELISA.

CD4, CXCR4 and CCR5 = details: primary cells treated with C14
Method: Cell surface antigens were analyzed by FACSCalibur (Becton Dickinson, NJ, USA) using monoclonal antibodies (mAbs) conjugated with either fluorescein isothiocyanate (FITC) or phyco-erithryn (PE). Following incubation with different mAbs for 30 min at 4°C, cells were washed with PBS containing azide (0.01%), BSA (0.2%) and fixed using 1% formaldehyde PBS buffer.

[8] = system: X4-tropic HIV-1 particles; details: 20 μM
Method: as §5, §6

[9] = system: HIV-1 DNA (R5-HIV-1Ba-L or X4-HIV-1NDK); assay: HIV-1 DNA content of primary cells by real time PCR; details: all primary cells, whatever the viral strain; increasing doses
Method: Genomic DNA was isolated from HIV-infected macrophages by using extraction protocol on a silica column system according to the manufacturer's instructions (Qiagen DNA minikit, AG, Basel, Switzerland). […] The LC-PCR master mix contained 1 × Fast-Start Taq DNA polymerase reaction buffer (Roche Applied Science), 3 mM MgCl2, 0.3 μM of each primer and probe. Cycling conditions were as follows: initial denaturation/FastStart Taq DNA polymerase activation at 95°C/10 minutes, 45 cycles of denaturation at 95°C/10 seconds, annealing and extension at 60°C/30 seconds with a ramp of 5°C/seconds. The first PCR cycle allowing fluorescence detection permitted to quantify HIV-1 DNA by reference to a standard curve (dilutions of 8E5 cell DNA). All reactions were performed in triplicate and tested in the same assay. […] The normalized value of cell-associated HIV-1 DNA loads corresponding to the ratio [(HIV-1 copy number/albumin copy number) × 2 × 10^6], was finally expressed as the number of HIV-1 DNA copies per 10^6 cells.
Monocyte-derived macrophages (A), monocyte-derived dendritic cells (B) and T cells (C) were incubated with R5 or X4 viruses in the presence of increasing concentrations of C14 or an unique dose of T 20 (5 μM) for 3 hours at 37°C. […] DNA was extracted and the viral DNA was quantified by real time PCR. […]

R5-tropic HIV-1Ba-L [10] = details: 1 μM, 3 hours
Method: Monocytes or PBL (10E5 cells) were adsorbed on a microscopy-adapted slide for 6 days. MDDC, MDM or PBL were infected in the presence of C14 diluted at 10 μM for 3 hours. Cells were then washed and incubated with or without polyclonal antibodies anti-gp160 (50 μg/ml) at 4°C for 30 minutes. Cells were washed with PBS 0.01% azide 0.5% BSA, and were labelled with polyclonal mouse anti-human IgG-FITC (Jackson ImmunoResearch Laboratories, West Grove, PA, USA) and then fixed with 1% paraformaldehyde. The coverslides were mounted in Mowiol (Sigma-Aldrich). The observations were made by sequential acquisition with a Zeiss LSM510 System, mounted on an Axiovert 100 M optical microscope (Carl Zeiss AG, Oberkochen, Germany), using a planapochromat ×63, 1.4 numerical aperture oil immersion objective. Optical sections were acquired, each one with an image resolution of 512 × 512 pixels.
Cells were incubated with R5-tropic HIV-1Ba-L in the presence of 1 μM of C14 for 3 hours. […]
Monocyte-derived macrophages, monocyte-derived dendritic cells and T cells were incubated with R5 viruses in the presence of increasing concentrations of C14 for 3 hours at 37°C. […] Cells were then analysed by confocal microscopy. […] 30 cells were at least analyzed for each donor.

X4-tropic HIV-1NDK [11] = assay: Inhibition of infection of macrophages by X4-HIV-1NDK (p24 ELISA); format: cell-based; details: MΦ, mean ± 1 SD
Method: as §1, §2

X4-tropic HIV-1NDK [12] = assay: Inhibition of infection of dendritic cells by X4-HIV-1NDK (p24 ELISA); format: cell-based; details: DC, mean ± 1 SD
Method: as §1, §2

R5-tropic HIV-1 = system: R5-tropic HIV-1
Method: (§3) To assess the transmission of HIV-1 from MDDC to autologous T-cells, MDDC were incubated into 96-well culture plates (10^5 cells/well) and infected with HIV-1 (1 ng p24) in the presence of increasing concentrations of molecules for 3 hours at 37°C in a 5% CO2 atmosphere. Cells were washed four times and autologous stimulated T cells were added onto infected MDDC at a MDDC/T-cell ratio of 1/5 for 6 days. Each sample was performed in triplicate. Culture supernatants were harvested every 3 days and fresh medium was added. Supernatants were inactivated with 1% Triton X-100. The viral production by T lymphocytes was evaluated the sixth day of the co-culture by measurement of HIV-1 p24 antigen in supernatants using capture ELISA.
(§4) Culture supernatants were harvested after 7 of culture for measurement of HIV p24 antigen.

X4-tropic HIV-1 = system: X4-tropic HIV-1
Method: as §3, §4

Molecule: C=C(C)[C@@H]1CC[C@]2(C(=O)NCCCCCCCC(=O)N[C@@H](CC(C)C)[C@H](O)CC(=O)O)CC[C@]3(C)[C@H](CC[C@@H]4[C@@]5(C)CC[C@H](O)C(C)(C)[C@@H]5CC[C@]43C)[C@@H]12 [IC9564]
- inhibition of HIV-1 replication, active concentration (HIV-1 [1]): nanomolar concentrations

Molecule: C=C(C)[C@@H]1CC[C@]2(C(=O)O)CC[C@]3(C)[C@H](CC[C@@H]4[C@@]5(C)CC[C@H](OC(=O)CC(C)(C)C(=O)O)C(C)(C)[C@@H]5CC[C@]43C)[C@@H]12 [PA-457]
- inhibition of HIV-1 replication, active concentration (HIV-1 [1]): nanomolar concentrations

Molecule: CCCCCCCCCc1ccc(OCCOCCOCCOCCOCCOCCOCCOCCOCCO)cc1 [nonoxynol-9]
- score of histological changes (vaginal mucosa): about 8 ± 3

Molecule: zinc tetra-ascorbo-camphorate [C14]
- IC50 (HIV-1 [2]; different primary cells): 1000 nM
- EC50 (HIV-1 [2]; infection of all the primary cells tested): 1000 nM
- IC50 (R5-tropic HIV-1Ba-L [3]): 1300 ± 100 nM
- IC50 (R5-tropic HIV-1Ba-L [4]): 1300 ± 1000 nM
- IC50 (X4-tropic HIV-1NDK [5]): 700 ± 100 nM
- IC50 (R5-tropic HIV-1Ba-L [6]): 800 nM
- HIV-1 production by activated PBL, virus treated versus untreated with C14 [7]: similar
- cell surface expressions of CD4, CXCR4 and CCR5 (CD4, CXCR4 and CCR5): not altered
- disruption of HIV-1 particles [8]: 58 ± 2%
- reduction of the HIV-1 DNA content [9]: 2–3 log
- inhibition of entry of viruses (R5-tropic HIV-1Ba-L [10]; T cells): inhibited the entry of viruses only into T cells
- inhibition of entry of viruses (R5-tropic HIV-1Ba-L [10]; macrophages and DCs): unlike in macrophages and DCs
- IC50 (X4-tropic HIV-1NDK [11]): 20 nM
- IC50 (X4-tropic HIV-1NDK [12]): 1800 ± 100 nM
- inhibition of HIV-1 transfer from DC to T cells (R5-tropic HIV-1; 1 μM): about 95%
- inhibition of HIV-1 transfer from DC to autologous T cells (R5-tropic HIV-1; low concentrations): more than 90%
- inhibition of HIV-1 transfer from DC to T cells (X4-tropic HIV-1; 1 μM): about 95%
- inhibition of HIV-1 transfer from DC to autologous T cells (X4-tropic HIV-1; low concentrations): more than 90%
